The text below walks through data of patent publication US20060276477A1, “Treatment method for anemia” (FibroGen, Inc., priority 2005, published 2006).

Common to all, as to assay type: in vivo
The subject of data set [1] is circulating EPO. The experiment in a line: Circulating EPO levels in bilateral nephrectomized and sham-operated mice. As for the experimental part: Mice underwent bilateral nephrectomy (BN) surgery (or were sham-operated). Two hours after BN surgery, mice were administered a single oral dose (30 mg/kg) of compound A. Circulating EPO levels were measured 6 hours after compound administration. […] The kidneys produce the majority of endogenous EPO.

The next data set deals with hematocrit. The experiment in a line: Hematocrit in rats after intermittent dosing for 4 weeks. As for the experimental part: Male (diamonds in FIG. 2) and female (triangles in FIG. 2) rats were administered various doses (20, 60, 150, 200, 300 mg/kg) of compound A two times per week (e.g., intermittent dosing) for 4 weeks. Hematocrit was determined on day 32.
The test system of data set [2] is circulating EPO. The experiment in a line: Circulating EPO levels in mice after single intravenous or oral gavage dose. The conditions noted are these: 6 hours after administration; for EPO Intravenous: single intravenous dose (dose of the table not stated; 2-60 mg/kg tested); for EPO Oral Gavage: single oral gavage dose (dose of the table not stated; 2-60 mg/kg tested). The method, then:
(§1) Mice were administered various doses (2 mg/kg, 6 mg/kg, 20 mg/kg, 60 mg/kg) of compounds of the present invention by oral gavage or by intravenous injection. Circulating levels of EPO were determined […] hours after single-dose administration of compound. Hemoglobin levels were measured in mice on day 8 following administration of compound by oral gavage on day 1, day 3, and day 5.

Data set [3] concerns circulating EPO. In words: Circulating EPO levels in mice after oral gavage of compound A. The method, then:
Mice were administered various doses (0, 20, 30, 60 mg/kg) of compound A by oral gavage. Circulating levels of EPO were determined 6 hours after compound administration. […] Administration of 20 mg/kg of compound A increased circulating levels of EPO approximately two-fold.

Data set [4] has as its system circulating EPO. In words: Peak circulating (serum) EPO levels in normal monkeys after a single dose. The conditions noted are these: 8-12 hours after administration.
The subject of data set [5] is hemoglobin. In words: Hemoglobin levels in mice on day 8 after oral gavage on day 1, 3 and 5. The conditions noted are these: for Hemoglobin 6 mg/kg cmpd: 6 mg/kg oral gavage on day 1, 3 and 5, measured day 8; for Hemoglobin 20 mg/kg cmpd: 20 mg/kg oral gavage on day 1, 3 and 5, measured day 8; for Hemoglobin 60 mg/kg cmpd: 60 mg/kg oral gavage on day 1, 3 and 5, measured day 8; for Hemoglobin 2 mg/kg cmpd: 2 mg/kg oral gavage on day 1, 3 and 5, measured day 8. As for the experimental part:
as §1

In a further data set the test system is serum EPO. The experiment in a line: Serum EPO levels in healthy human subjects after compound administration. Further details: EPO AUC (0-24 hours): unit not given beside the values. The method, then: […] At the indicated times (hours) after compound administration, serum EPO levels were determined.
(§2) Increases in circulating EPO levels following administration of compound A or of rhEPO were compared. Table 3 and Table 2 below show Cmax EPO and EPO Area Under the Curve (AUC) values following intravenous (i.v.) or subcutaneous (s.c.) administration of various doses of rhEPO to human subjects, respectively. […] (See Table 1 below.)

Data set [6] relates to hemoglobin. In words: Hemoglobin levels in anemic pre-dialysis human subjects with chronic kidney disease. The settings on record: for Mean change from Baseline Hb Day 42 (or last value carried forward): oral three-times per week for 4 weeks. As for the experimental part:
The effects of compound of the present invention on erythropoiesis in anemic pre-dialysis subjects with advanced stage chronic kidney disease were determined. Study subjects had chronic kidney disease and anemia, having GFR<30 ml/min and Hb<10g/dL. Two anemic pre-dialysis subject populations with chronic kidney disease (CKD) were studied: (1) subjects with no previous exposure to rhEPO (i.e., rhEPO-naive) and (2) subjects who had been receiving continuous rhEPO therapy for at least 8 weeks. In rhEPO-treated subjects, rhEPO administration was discontinued 5-14 days prior to initiation of treatment with compound of the present invention Subjects were orally administered compound A three-times per week for 4 weeks. Erythropoiesis was measured by changes in hemoglobin levels and serum EPO concentrations.

Data set [7] in a line: Circulating EPO (Cmax, AUC) after i.v. or s.c. administration of rhEPO to human subjects. The conditions noted are these: assumes basal endogenous EPO of ~10 mIU/ml.
From the text: as §2

For `O=C(O)CNC(=O)c1nc(Cl)c2ccccc2c1O` [Compound A, [(1-Chloro-4-hydroxy-isoquinoline-3-carbonyl)-amino]-acetic acid], the “circulating EPO levels” value in the data set on circulating EPO [1] (bilateral nephrectomized (BN) mice, single oral dose 30 mg/kg two hours after surgery, 6 hours after administration (FIG. 4B)) is “significant increase in EPO levels”; with circulating EPO [1] (sham-operated mice, single oral dose 30 mg/kg, 6 hours after administration (FIG. 4A)) it was “an increase in circulating levels of EPO”. Besides, the hematocrit entry with hematocrit (male and female rats, 20, 60, 150, 200, 300 mg/kg two times per week for 4 weeks, day 32 (FIG. 2)) is reported as “increased hematocrit in rats in a dose-dependent manner”. In addition, in the data set on hematocrit (rats, 20 mg/kg two times per week for 4 weeks, day 32), the “erythropoiesis, as determined by hematocrit” value is “clinically-significant increase in erythropoiesis”. In addition, the “EPO Intravenous” value in the data set on circulating EPO [2] was 1309 mIU/ml. For the same compound, in the data set on circulating EPO [3] (oral gavage 0, 20, 30, 60 mg/kg, 6 hours after administration (FIG. 1)), the “circulating levels of EPO” value is on record as “increased EPO levels in mice in a dose-dependent manner”. In addition, the “increase of circulating levels of EPO” value with circulating EPO [3] (oral gavage 20 mg/kg, 6 hours after administration) was “approximately two-fold”. Also, the “Peak EPO” value in the data set with circulating EPO [4] (single dose 13 mg/kg, pre-dose 2.1) is 3.6; with circulating EPO [4] (single dose 30 mg/kg, pre-dose 0.6), 2.9; in the data set with circulating EPO [4] (single dose 40 mg/kg, pre-dose 0.8), 32.3; in the data set on circulating EPO [4] (single dose 50 mg/kg, pre-dose 0) it was 21.4; in the data set with circulating EPO [4] (single dose 60 mg/kg, pre-dose 0) it was 1194.2. Moreover, the “Hemoglobin 6 mg/kg cmpd” value with hemoglobin [5] worked out at 12.86 g/dL. In addition, the “Hemoglobin 20 mg/kg cmpd” value in the data set with hemoglobin [5] was 12.92 g/dL. Further, the “Hemoglobin 60 mg/kg cmpd” value in the data set with hemoglobin [5] is reported as 13.47 g/dL. Besides, the “serum EPO levels” value in the data set on serum EPO (healthy human subjects, 3, 6, 10, 15, 20 mg/kg oral (FIG. 3)) is on record as “increased serum EPO levels in a dose-dependent manner”. In addition, the “EPO AUC (0-24 hours)” value amounted to 203.5 in the data set on serum EPO (human subjects, PHI dose 6 mg/kg); 331 with serum EPO (human subjects, PHI dose 10 mg/kg); 365.5 with serum EPO (human subjects, PHI dose 20 mg/kg); 508 with serum EPO (human subjects, PHI dose 30 mg/kg). For the same compound, the “circulating EPO levels compared with rhEPO administration” value in the data set on serum EPO (human subjects, therapeutically effective doses of compound A versus rhEPO) is “substantially lower circulating EPO levels”. Besides, in the data set on hemoglobin [6] (CKD subjects after cessation of rhEPO therapy, placebo 1.5 g/dL decrease), the “decrease from mean Hb baseline levels” value is given as 0.9 g/dL. Also, the “Mean change from Baseline Hb Day 42 (or last value carried forward)” value is -0.9 g/dL with hemoglobin [6] (CKD subjects previously on rhEPO (discontinued 5-14 days before), mean baseline Hb 11.7 g/dL, placebo −1.5) and 1.9 g/dL with hemoglobin [6] (rhEPO-naive CKD subjects, mean baseline Hb 9.6 g/dL, placebo −0.35, p = 0.036). Moreover, in the data set with hemoglobin [6] (rhEPO-naive CKD subjects, oral three-times per week for 4 weeks (FIG. 5)), the “hemoglobin levels versus placebo” value is “hemoglobin levels were higher”.

In the case of `Cc1nc(C(=O)NCC(=O)O)c(O)c2ccc(Oc3ccccc3)cc12` [Compound B, [(4-Hydroxy-1-methyl-7-phenoxy-isoquinoline-3-carbonyl)-amino]-acetic acid], the “Peak EPO” value is 13.1 in the data set with circulating EPO [4] (single dose 3 mg/kg, pre-dose 4.2); 1534.0 in the data set on circulating EPO [4] (single dose 30 mg/kg, pre-dose 0); 2739.8 with circulating EPO [4] (single dose 60 mg/kg, pre-dose 1.2).

Regarding `COc1ccc(Oc2ccc3c(O)c(C(=O)NCC(=O)O)ncc3c2)cc1` [Compound C, {[4-Hydroxy-7-(4-methoxy-phenoxy)-isoquinoline-3-carbonyl]-amino}-acetic acid], the “EPO Intravenous” value with circulating EPO [2] was 1663 mIU/ml. In the data set on hemoglobin [5], the “Hemoglobin 6 mg/kg cmpd” value was 13.68 g/dL, the “Hemoglobin 20 mg/kg cmpd” value was 14.29 g/dL and the “Hemoglobin 60 mg/kg cmpd” value is listed as 14.94 g/dL.

As for `O=C(O)CNC(=O)c1ncc2c(Oc3ccccc3)cccc2c1O` [Compound D, [(4-Hydroxy-8-phenoxy-isoquinoline-3-carbonyl)-amino]-acetic acid], in the data set with circulating EPO [2], the “EPO Intravenous” value came out at 5473 mIU/ml and the “EPO Oral Gavage” value stood at 1201 mIU/ml. Besides, in the data set with hemoglobin [5], the “Hemoglobin 2 mg/kg cmpd” value was 14.1 g/dL, the “Hemoglobin 6 mg/kg cmpd” value was 13.98 g/dL and the “Hemoglobin 20 mg/kg cmpd” value is given as 14.55q g/dL.

Regarding `Cc1nc(C(=O)NCC(=O)O)c(O)c2cccc(Oc3ccccc3)c12` [Compound E, [(4-Hydroxy-1-methyl-8-phenoxy-isoquinoline-3-carbonyl)-amino]-acetic acid], in the data set on circulating EPO [2], the “EPO Intravenous” value was 2976 mIU/ml and the “EPO Oral Gavage” value is listed as 744 mIU/ml. Besides, in the data set with hemoglobin [5], the “Hemoglobin 2 mg/kg cmpd” value was found to be 12.23 g/dL, the “Hemoglobin 6 mg/kg cmpd” value is 13.29 g/dL, the “Hemoglobin 20 mg/kg cmpd” value is on record as 13.41 g/dL and the “Hemoglobin 60 mg/kg cmpd” value stood at 15.9 g/dL.

For `Cc1nc(C(=O)NCC(=O)O)c(O)c2ccc(Cl)cc12` [Compound F, [(7-Chloro-4-hydroxy-1-methyl-isoquinoline-3-carbonyl)-amino]-acetic acid], in the data set on circulating EPO [2], the “EPO Intravenous” value is listed as 3967 mIU/ml. Also, in the data set with hemoglobin [5], the “Hemoglobin 6 mg/kg cmpd” value worked out at 13.66 g/dL, the “Hemoglobin 20 mg/kg cmpd” value was 14.15 g/dL and the “Hemoglobin 60 mg/kg cmpd” value is given as 17.74 g/dL.

For the compound `Cc1nc(C(=O)NCC(=O)O)c(O)c2cccc(Oc3ccc(F)cc3)c12` [Compound G, {[8-(4-Fluoro-phenoxy)-4-hydroxy-1-methyl-isoquinoline-3-carbonyl]-amino}-acetic acid], in the data set on circulating EPO [2], the “EPO Intravenous” value was 10969 mIU/ml and the “EPO Oral Gavage” value is reported as 2546 mIU/ml. For the same compound, in the data set on hemoglobin [5], the “Hemoglobin 2 mg/kg cmpd” value stood at 14.39 g/dL, the “Hemoglobin 6 mg/kg cmpd” value was determined as 13.13 g/dL, the “Hemoglobin 20 mg/kg cmpd” value is listed as 14.85 g/dL and the “Hemoglobin 60 mg/kg cmpd” value stood at 17.7 g/dL.

As for `N#Cc1nc(C(=O)NCC(=O)O)c(O)c2sccc12` [Compound H, [(4-cyano-7-hydroxy-thieno[3,2-c]pyridine-6-carbonyl)-amino]-acetic acid], in the data set on circulating EPO [2], the “EPO Intravenous” value amounted to 1242 mIU/ml and the “EPO Oral Gavage” value is 608 mIU/ml. Further, in the data set with hemoglobin [5], the “Hemoglobin 2 mg/kg cmpd” value was determined as 12.67 g/dL, the “Hemoglobin 6 mg/kg cmpd” value is 13.65 g/dL, the “Hemoglobin 20 mg/kg cmpd” value is recorded as 13.53 g/dL and the “Hemoglobin 60 mg/kg cmpd” value turned out to be 14.2 g/dL.

With “rhEPO: recombinant human erythropoietin (rhEPO), an erythropoiesis stimulating protein; current therapy for anemia”, the “Cmax EPO” value was 181 mIU/ml in [7] (rhEPO 10 U/kg i.v.); 1,430 mIU/ml in data set [7] (rhEPO 50 U/kg i.v.); 4,438 mIU/ml in data set [7] (rhEPO 150 U/kg i.v.); 429 mIU/ml in [7] (rhEPO 300 U/kg s.c.); 1,263 mIU/ml in data set [7] (rhEPO 450 U/kg s.c.); 16,257 mIU/ml in data set [7] (rhEPO 500 U/kg i.v.). The “Cmax EPO” value in data set [7] (rhEPO 600 U/kg s.c.) is given as 1,263 mIU/ml.
